Assay results reported in patent US20160200733A1, “SUBSTITUTED THIENO[2,3-B]PYRIDINE-2-CARBOXAMIDE ANALOGS AS POSITIVE ALLOSTERIC MODULATORS OF THE MUSCARINIC ACETYLCHOLINE RECEPTOR M4” (Vanderbilt University, priority 2013, published 2016).

Target: T1, mAChR hM4 (Homo sapiens, UniProt P08173)
T1 construct: expressed in transfected cells; host or cells: CHO-K1 (Chinese hamster ovary) cells
T1 sequence (P08173 1-479): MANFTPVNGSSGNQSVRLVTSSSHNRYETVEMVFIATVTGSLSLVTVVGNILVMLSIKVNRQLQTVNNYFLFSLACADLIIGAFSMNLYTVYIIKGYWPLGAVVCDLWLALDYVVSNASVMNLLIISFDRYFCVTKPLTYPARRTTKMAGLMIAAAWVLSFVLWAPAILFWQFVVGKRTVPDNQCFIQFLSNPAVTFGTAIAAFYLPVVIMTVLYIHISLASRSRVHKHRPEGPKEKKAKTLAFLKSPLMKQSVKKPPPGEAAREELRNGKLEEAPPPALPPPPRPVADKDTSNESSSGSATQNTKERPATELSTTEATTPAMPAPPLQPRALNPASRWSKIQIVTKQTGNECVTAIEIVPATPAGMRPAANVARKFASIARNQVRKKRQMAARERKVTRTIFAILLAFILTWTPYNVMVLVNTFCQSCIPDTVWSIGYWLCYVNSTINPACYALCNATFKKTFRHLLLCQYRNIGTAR
Assay: mAChR M4 cell-based functional assay (calcium flux, potentiation of EC20 acetylcholine response)
Conditions: mAChR hM4 cell-line; for EC50: >10,000 estimated for low potency compounds lacking a plateau; for Emax at 30 µM: % ACh maximum at 30 μM
Outline: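 CHO-K1 cells expressing human M4, loaded with Fluo-4 Ca2+ dye; potentiation of an EC20 acetylcholine response read as increase in fluorescence static ratio. EC50 and Emax from concentration-dependent increase over the EC20 response.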

EC50 | Emax at 30 µM | Structure (SMILES)
> 10 µM |  | Cc1cc(C)c2c(Br)c(C(=O)NC(C)C)sc2n1 [Example 1, 3-bromo-N-isopropyl-4,6-dimethylthieno[2,3-b]pyridine-2-carboxamide]
3.3 µM | 68% | Cc1cc(C)c2c(Br)c(C(=O)NC3COC3)sc2n1 [Example 2, 3-bromo-4,6-dimethyl-N-(oxetan-3-yl)thieno[2,3-b]pyridine-2-carboxamide]
3.9 µM | 44% | Cc1cc(C)c2c(Br)c(C(=O)N3CCCC3)sc2n1 [Example 3, (3-bromo-4,6-dimethylthieno[2,3-b]pyridin-2-yl)(pyrrolidin-1-yl)methanone]
